Laboratory results: patent publication US20220088016A1, “CANCER TREATMENT USING MULTI-TARGETED KINASE INHIBITOR IN COMBINATION OF PROTEIN KINASE BIOMARKERS” (ZHEJIANG CROWNMAB BIOTECH CO. LTD., priority 2019, published 2022)

How the values were obtained:
Test in all cases: Kinase profiling
Assay type in all cases: binding
Settings in all cases: read-out: % Ctrl @ 1000 nM
RIPK4 = RIPK4 (Homo sapiens, UniProt P57078)
MUSK = target: T1, MUSK (Homo sapiens, UniProt O15146)
T1 construct: T7 phage fusion (said for most assays); made in house
T1 sequence (O15146 24-869): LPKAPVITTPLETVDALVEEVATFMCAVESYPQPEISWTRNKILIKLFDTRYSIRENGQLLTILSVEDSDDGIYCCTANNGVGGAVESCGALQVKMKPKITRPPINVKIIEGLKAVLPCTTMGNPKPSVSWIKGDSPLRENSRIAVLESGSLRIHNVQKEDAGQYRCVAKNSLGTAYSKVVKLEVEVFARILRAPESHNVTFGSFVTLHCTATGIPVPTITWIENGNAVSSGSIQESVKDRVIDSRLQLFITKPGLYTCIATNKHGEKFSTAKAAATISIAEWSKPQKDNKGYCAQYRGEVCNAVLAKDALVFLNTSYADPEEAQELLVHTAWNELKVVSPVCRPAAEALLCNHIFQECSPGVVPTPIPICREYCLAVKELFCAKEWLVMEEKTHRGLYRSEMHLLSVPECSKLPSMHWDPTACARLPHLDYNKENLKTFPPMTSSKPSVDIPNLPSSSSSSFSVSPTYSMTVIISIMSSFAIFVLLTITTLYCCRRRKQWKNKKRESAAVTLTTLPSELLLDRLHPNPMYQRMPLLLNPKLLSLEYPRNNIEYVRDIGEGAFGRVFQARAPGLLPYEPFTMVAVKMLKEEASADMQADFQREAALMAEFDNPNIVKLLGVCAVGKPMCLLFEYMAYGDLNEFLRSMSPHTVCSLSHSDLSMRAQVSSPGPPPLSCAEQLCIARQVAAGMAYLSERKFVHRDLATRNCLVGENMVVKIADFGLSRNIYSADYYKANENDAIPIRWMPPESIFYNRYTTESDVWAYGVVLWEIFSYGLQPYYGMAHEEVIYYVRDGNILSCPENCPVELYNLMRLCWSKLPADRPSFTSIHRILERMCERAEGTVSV

PLK4 = PLK4 (Homo sapiens, UniProt O00444)
PAK1 = PAK1 (Homo sapiens, UniProt Q13153)
Chain of PAK1 (Q13153 whole entry): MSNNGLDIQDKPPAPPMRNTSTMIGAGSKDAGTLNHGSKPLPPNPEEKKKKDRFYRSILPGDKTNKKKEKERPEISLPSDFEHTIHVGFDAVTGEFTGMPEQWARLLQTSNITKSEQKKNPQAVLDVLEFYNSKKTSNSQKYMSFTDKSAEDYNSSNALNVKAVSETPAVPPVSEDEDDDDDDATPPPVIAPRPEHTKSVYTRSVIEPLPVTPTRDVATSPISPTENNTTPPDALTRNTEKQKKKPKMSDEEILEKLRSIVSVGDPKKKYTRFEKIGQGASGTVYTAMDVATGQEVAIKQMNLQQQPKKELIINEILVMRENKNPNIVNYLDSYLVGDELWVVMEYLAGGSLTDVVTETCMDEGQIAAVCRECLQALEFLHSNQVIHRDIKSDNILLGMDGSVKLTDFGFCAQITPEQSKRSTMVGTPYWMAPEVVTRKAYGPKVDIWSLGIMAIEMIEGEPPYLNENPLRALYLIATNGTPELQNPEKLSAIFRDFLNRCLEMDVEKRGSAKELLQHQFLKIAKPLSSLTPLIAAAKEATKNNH

PIK3CA (Q546K) = PIK3CA (Q546K) (Homo sapiens, UniProt P42336, Q546K)
CAMK2D = CAMK2D (Homo sapiens, UniProt Q13557)
LRRK2 = LRRK2 (Homo sapiens, UniProt Q5S007)
CAMK1G = CAMK1G (Homo sapiens, UniProt Q96NX5)
Chain of CAMK1G (Q96NX5 whole entry): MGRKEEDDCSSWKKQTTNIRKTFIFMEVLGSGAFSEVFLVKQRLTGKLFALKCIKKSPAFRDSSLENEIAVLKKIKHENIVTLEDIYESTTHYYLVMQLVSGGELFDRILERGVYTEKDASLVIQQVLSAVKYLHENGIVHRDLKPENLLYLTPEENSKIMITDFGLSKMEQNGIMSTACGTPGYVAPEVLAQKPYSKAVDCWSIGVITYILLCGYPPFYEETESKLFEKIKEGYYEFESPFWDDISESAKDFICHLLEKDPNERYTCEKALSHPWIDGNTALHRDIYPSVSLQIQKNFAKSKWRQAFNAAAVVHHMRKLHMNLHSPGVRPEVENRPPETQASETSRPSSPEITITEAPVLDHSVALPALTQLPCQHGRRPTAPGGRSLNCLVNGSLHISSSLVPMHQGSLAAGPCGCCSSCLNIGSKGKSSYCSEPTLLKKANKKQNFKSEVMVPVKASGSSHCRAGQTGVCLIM

YANK3 = YANK3 (Homo sapiens, UniProt Q86UX6)
MAP4K2 = MAP4K2 (Homo sapiens, UniProt Q12851)
EPHA2 = EPHA2 (Homo sapiens, UniProt P29317)
NEK9 = target: T2, NEK9 (Homo sapiens, UniProt Q8TD19)
T2 construct: T7 phage fusion (said for most assays); made in house

EGFR (G719S) = EGFR (G719S) (Homo sapiens, UniProt P00533, G719S)
CDK9 = CDK9 (Homo sapiens, UniProt P50750)
CAMK1B = CAMK1B (Homo sapiens, UniProt Q6P2M8)
ASK2 = ASK2 (Homo sapiens, UniProt O95382)
MAP3K1 = MAP3K1 (Homo sapiens, UniProt Q13233)
[1] = target: JAK2 (JH1domain-catalytic) (Homo sapiens, UniProt O60674)
ARK5 = ARK5 (Homo sapiens, UniProt O60285)
Chain of ARK5 (O60285 whole entry): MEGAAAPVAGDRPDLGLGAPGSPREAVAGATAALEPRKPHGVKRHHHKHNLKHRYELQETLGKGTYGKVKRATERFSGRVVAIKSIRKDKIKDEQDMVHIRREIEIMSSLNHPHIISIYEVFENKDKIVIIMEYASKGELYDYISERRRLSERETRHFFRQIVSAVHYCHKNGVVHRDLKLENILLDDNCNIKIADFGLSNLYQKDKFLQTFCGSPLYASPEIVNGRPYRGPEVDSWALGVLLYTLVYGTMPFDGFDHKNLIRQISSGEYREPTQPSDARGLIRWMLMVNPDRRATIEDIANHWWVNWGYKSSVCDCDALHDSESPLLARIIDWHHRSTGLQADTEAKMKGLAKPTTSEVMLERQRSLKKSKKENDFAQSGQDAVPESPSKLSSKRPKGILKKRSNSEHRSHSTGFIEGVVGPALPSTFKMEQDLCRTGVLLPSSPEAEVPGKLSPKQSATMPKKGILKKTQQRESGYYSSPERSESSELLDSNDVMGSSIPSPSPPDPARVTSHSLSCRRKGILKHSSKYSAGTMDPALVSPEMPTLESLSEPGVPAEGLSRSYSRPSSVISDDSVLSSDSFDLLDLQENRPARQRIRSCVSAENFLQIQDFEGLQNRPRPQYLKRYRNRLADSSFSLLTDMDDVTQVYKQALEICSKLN

KIT-autoinhibited = KIT-autoinhibited (Homo sapiens, UniProt P10721)
CSNK1G2 = CSNK1G2 (Homo sapiens, UniProt P78368)
Chain of CSNK1G2 (P78368 whole entry): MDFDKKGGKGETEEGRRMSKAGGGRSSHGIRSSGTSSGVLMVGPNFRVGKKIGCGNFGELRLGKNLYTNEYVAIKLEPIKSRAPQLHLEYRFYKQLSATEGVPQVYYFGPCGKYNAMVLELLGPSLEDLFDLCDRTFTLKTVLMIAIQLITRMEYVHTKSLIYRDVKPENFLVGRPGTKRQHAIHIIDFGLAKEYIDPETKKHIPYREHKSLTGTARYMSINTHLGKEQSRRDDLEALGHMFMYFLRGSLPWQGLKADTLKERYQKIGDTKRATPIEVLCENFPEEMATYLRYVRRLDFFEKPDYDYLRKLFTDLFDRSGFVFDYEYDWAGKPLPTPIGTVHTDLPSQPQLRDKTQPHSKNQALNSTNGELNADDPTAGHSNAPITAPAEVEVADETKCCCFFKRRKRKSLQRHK

EPHA6 = EPHA6 (Homo sapiens, UniProt Q9UF33)
DMPK2 = DMPK2 (Homo sapiens, UniProt Q6DT37)
AMPK-alpha1 = AMPK-alpha1 (Homo sapiens, UniProt Q13131)
DLK = DLK (Homo sapiens, UniProt Q12852)
CHEK2 = CHEK2 (Homo sapiens, UniProt O96017)
[2] = target: ABL1 (F317L)-phosphorylated (Homo sapiens, UniProt P00519, F317L)
KIT (V559D, V654A) = KIT (V559D, V654A) (Homo sapiens, UniProt P10721, V559D/V654A)
PRKD1 = PRKD1 (Homo sapiens, UniProt Q15139)
Chain of PRKD1 (Q15139 whole entry): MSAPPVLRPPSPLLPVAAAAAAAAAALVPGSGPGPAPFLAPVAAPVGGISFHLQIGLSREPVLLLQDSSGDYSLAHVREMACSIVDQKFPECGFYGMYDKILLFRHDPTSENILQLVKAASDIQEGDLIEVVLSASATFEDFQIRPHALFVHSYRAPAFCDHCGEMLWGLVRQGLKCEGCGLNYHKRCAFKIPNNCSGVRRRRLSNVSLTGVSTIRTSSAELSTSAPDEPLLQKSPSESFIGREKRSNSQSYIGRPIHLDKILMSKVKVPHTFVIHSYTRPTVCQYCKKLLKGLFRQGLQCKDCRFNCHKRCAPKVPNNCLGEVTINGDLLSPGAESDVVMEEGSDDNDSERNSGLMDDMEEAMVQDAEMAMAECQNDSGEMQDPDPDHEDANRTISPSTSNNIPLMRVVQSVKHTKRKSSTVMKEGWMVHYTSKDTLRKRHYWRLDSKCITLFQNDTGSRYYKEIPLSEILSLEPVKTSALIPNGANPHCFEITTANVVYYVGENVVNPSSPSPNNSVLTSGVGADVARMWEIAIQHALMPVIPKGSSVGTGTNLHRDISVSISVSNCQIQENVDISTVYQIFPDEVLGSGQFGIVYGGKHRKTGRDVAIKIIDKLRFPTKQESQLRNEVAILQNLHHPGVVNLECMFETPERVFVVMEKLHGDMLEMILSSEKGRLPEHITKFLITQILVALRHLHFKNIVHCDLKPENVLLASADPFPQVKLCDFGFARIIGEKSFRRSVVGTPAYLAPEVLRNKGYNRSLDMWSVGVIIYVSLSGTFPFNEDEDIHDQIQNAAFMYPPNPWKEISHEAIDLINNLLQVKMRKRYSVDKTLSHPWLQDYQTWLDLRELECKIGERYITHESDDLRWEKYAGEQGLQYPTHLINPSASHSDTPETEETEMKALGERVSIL

SNRK = SNRK (Homo sapiens, UniProt Q9NRH2)
[3] = target: TYK2 (JH1domain-catalytic) (Homo sapiens, UniProt P29597)
CSNK1A1L = CSNK1A1L (Homo sapiens, UniProt Q8N752)
PKN1 = PKN1 (Homo sapiens, UniProt Q16512)
Chain of PKN1 (Q16512 whole entry): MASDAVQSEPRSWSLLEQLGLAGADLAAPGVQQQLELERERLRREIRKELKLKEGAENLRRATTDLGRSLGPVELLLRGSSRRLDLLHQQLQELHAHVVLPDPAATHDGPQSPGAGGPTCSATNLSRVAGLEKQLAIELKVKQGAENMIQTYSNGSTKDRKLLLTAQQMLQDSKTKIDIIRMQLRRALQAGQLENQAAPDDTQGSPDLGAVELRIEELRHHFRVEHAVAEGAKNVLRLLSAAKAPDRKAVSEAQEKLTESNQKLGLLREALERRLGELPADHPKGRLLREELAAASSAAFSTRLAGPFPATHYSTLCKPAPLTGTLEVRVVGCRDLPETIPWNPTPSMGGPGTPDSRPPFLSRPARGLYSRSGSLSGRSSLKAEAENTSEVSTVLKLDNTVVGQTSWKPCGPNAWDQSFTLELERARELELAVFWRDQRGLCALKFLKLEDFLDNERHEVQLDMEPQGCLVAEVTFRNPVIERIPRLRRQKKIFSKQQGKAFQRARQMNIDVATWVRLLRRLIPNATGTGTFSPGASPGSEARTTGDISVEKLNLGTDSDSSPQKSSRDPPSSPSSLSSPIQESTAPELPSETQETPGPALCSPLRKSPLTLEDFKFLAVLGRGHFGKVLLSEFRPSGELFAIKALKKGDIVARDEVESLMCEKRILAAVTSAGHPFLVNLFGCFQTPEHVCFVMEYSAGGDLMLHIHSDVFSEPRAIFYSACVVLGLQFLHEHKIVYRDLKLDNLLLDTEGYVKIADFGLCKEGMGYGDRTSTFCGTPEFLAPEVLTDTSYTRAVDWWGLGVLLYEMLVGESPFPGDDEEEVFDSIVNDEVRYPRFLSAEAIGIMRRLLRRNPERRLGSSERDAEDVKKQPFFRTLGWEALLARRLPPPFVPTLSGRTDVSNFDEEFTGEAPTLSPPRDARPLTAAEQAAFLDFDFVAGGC

MRCKA = target: T3, MRCKA (Homo sapiens, UniProt Q5VT25)
T3 construct: T7 phage fusion (stated for most kinases of the panel only); made in house; host or cells: T7 phage in E. coli (BL21-derived) or HEK-293 cells

RIOK2 = RIOK2 (Homo sapiens, UniProt Q9BVS4)
MAP3K4 = MAP3K4 (Homo sapiens, UniProt Q9Y6R4)
MYLK = target: T4, MYLK (Homo sapiens, UniProt Q15746)
T4 construct: T7 phage fusion (said for most assays); made in house

RIPK2 = RIPK2 (Homo sapiens, UniProt O43353)
FLT3 (N841I) = FLT3 (N841I) (Homo sapiens, UniProt P36888, N841I)

`Cc1cc(Oc2cc(NC(=O)C3CC3)ncn2)ccc1NC(=O)Nc1ccc(Cl)c(C(F)(F)F)c1` [CBT-102] showed a remaining activity at 1 µM (RIPK4) of 100%, a remaining activity at 1 µM (MUSK) of 47% and a remaining activity at 1 µM (PLK4) of 98%. It also gave a remaining activity at 1 µM (PAK1) of 100%, a remaining activity at 1 µM (PIK3CA (Q546K)) of 100% and a remaining activity at 1 µM (CAMK2D) of 93%. The remaining activity at 1 µM (LRRK2) was 73%, the remaining activity at 1 µM (CAMK1G) was 91% and the remaining activity at 1 µM (YANK3) was 88%. It also gave a remaining activity at 1 µM (MAP4K2) of 91%, a remaining activity at 1 µM (EPHA2) of 40% and a remaining activity at 1 µM (NEK9) of 96%. For the same compound, the remaining activity at 1 µM (EGFR (G719S)) was 84%, the remaining activity at 1 µM (CDK9) was 46% and the remaining activity at 1 µM (CAMK1B) was 98%. For the same compound, the remaining activity at 1 µM (ASK2) was 94%, the remaining activity at 1 µM (MAP3K1) was 83% and the remaining activity at 1 µM [1] was 100%. For the same compound, the remaining activity at 1 µM (ARK5) was 100%, the remaining activity at 1 µM (KIT-autoinhibited) was 58% and the remaining activity at 1 µM (CSNK1G2) was 94%. It also gave a remaining activity at 1 µM (EPHA6) of 2.7%, a remaining activity at 1 µM (DMPK2) of 100% and a remaining activity at 1 µM (AMPK-alpha1) of 98%. The remaining activity at 1 µM (DLK) was 89%, the remaining activity at 1 µM (CHEK2) was 100% and the remaining activity at 1 µM [2] was 52%. It also gave a remaining activity at 1 µM (KIT (V559D, V654A)) of 2.8%, a remaining activity at 1 µM (PRKD1) of 100% and a remaining activity at 1 µM (SNRK) of 100%. For the same compound, the remaining activity at 1 µM [3] was 5.6%, the remaining activity at 1 µM (CSNK1A1L) was 100% and the remaining activity at 1 µM (PKN1) was 100%. The remaining activity at 1 µM (MRCKA) was 91%, the remaining activity at 1 µM (RIOK2) was 92% and the remaining activity at 1 µM (MAP3K4) was 100%. It also gave a remaining activity at 1 µM (MYLK) of 98%, a remaining activity at 1 µM (RIPK2) of 28% and a remaining activity at 1 µM (FLT3 (N841I)) of 0%.
